# Laboratory results as given in patent publication US20200383985A1, “Inhibitors of Protease Activated Receptor-2” (Endosome Therapeutics, Inc., priority 2017, published 2020).
# What was measured:
# [1] = test system: PKC and ERK activity; assay: FRET assays of compartmentalized PKC and ERK in DRG neurons; assay type: cell-based, rat; conditions: I-343 10 μM, SCH530348 100 nM
# Protocol: To determine whether trypsin causes PAR2-dependent activation of PKC and ERK, which respectively mediate initial and persistent trypsin-induced hyperexcitability of nociceptors, genetically-encoded Förster Resonance Energy Transfer (FRET) biosensors were expressed in neurons. […] Trypsin (10 or 100 nM) activated PKC at the plasma membrane but not in the cytosol (FIG. 4E-G), and activated ERK in the cytosol and nucleus (FIG. 4H-J). The PAR2 antagonist I-343 (10 μM) inhibited trypsin-induced activation of PKC and ERK, whereas the PAR1 antagonist SCH530348 (100 nM) had no effect (FIG. 4F, I). At the end of experiments, neurons were challenged with the positive controls phorbol 12,13-dibutyrate (PDBu) for EKAR biosensors or PDBu plus phosphatase inhibitor mixture-2 for CKAR biosensors, to ensure that the response of the biosensor was not saturated.
# DRG were collected from C57BL/6 mice and Sprague-Dawley rats (all levels). DRG were incubated with collagenase IV (2 mg/ml) and dispase II (1 mg/ml) for 30 min (mice) and 45 min (rats) at 37° C. DRG were dispersed by trituration with a fire-polished Pasteur pipette. Dissociated neurons were transfected with mPAR2-GFP (1 μg), the FRET biosensors CytoEKAR, NucEKAR, pmCKAR or CytoCKAR (all […]), or with the BRET biosensors PAR2-RLuc8 (125 ng) and βARR2-FYP (475 ng) using the Lonza 4D-Nucleofector X unit according to the manufacturer's instructions. Neurons were plated on laminin- (0.004 mg/ml) and poly-L-Lysine- (0.1 mg/ml) coated glass coverslips for confocal microscopy, on ViewPlate-96 plates (PerkinElmer) for FRET assays, or on CulturPlates (PerkinElmer) for BRET assays. Neurons were maintained in Dulbecco's modified Eagle medium (DMEM) containing 10% fetal bovine serum (FBS), antibiotic-antimitotic, and N1 supplement for 48 h before study.
# Rat DRG neurons expressing FRET biosensors were serum-restricted (0.5% FBS overnight), and equilibrated in HBSS-HEPES (10 mM HEPES, pH 7.4, 30 min, 37° C.). FRET was analyzed using an Operetta CLS High-Content Imaging System (PerkinElmer) or an INCell Analyzer 2000 G E Healthcare Life Sciences). For CFP/YFP emission ratio analysis, cells were sequentially excited using a CFP filter (410-430 nm) with emission measured using YFP (520-560 nm) and CFP (460-500 nm) filters. Cells were imaged at 1 or 2 min intervals. Baseline was measured, neurons were challenged with trypsin (10 or 100 nM) or vehicle, and responses recorded for a further 30 min. Neurons were then challenged with phorbol 12,13-dibutyrate (PDBu, 200 nM, 10 min) for EKAR biosensors or PDBu (200 nM) and phosphatase inhibitor cocktail-2 (SigmaAldrich, 10 min) for CKAR biosensors. Data were analyzed using Harmony 4.1 or Image J 1.51 software. Images taken were aligned, cells were selected based on diameter, and fluorescence intensity was calculated for both FRET and CFP channels. Background intensity was subtracted and the FRET ratio was determined as the change in the FRET/donor (EKAR) or donor/FRET (CKAR) emission ratio relative to the baseline for each cell (F/Fo). Cells with >5% changes in F/F0 after PDBu stimulation were selected for analysis. Neurons were incubated with I-343 (10 μM), SCH530348 (100 nM) or vehicle (30 min, 37° C. preincubation and inclusion throughout).
# [2] = test system: PKC and cAMP; assay: FRET assays of PKC and cAMP in HEK293 cells; assay type: cell-based; conditions: HEK293 cells
# Protocol: I-343, but not SCH530348, inhibited trypsin stimulation of PKC and cAMP, which thus depend on PAR2 (FIGS. 19G and H). […] The sustained plasma membrane cAMP response to trypsin support the existence of mechanisms that allow persistent PAR2 signaling, which warrant further investigation.
# HEK293 cells were cultured in DMEM supplemented with 10% (v/v) FBS (5% CO2, 37° C.). When necessary serum restriction was achieved by replacing culture medium with DMEM containing 0.5% FBS overnight. Cells were transiently transfected using polyethylenimine (PEI) (1:6 DNA:PEI).
# HEK293 cells were transiently transfected in 10 cm dishes (˜50% confluency) with Flag-PAR2-HA (2.5 μg) and FRET biosensors CytoEKAR or NucEKAR (2.5 μg) (Jensen, D. D. et al., Sci Transl Med. 2017, 9(392), eaal3447; Thomsen, A. R. B., et al., Cell 2016, 166(4): 907-919). In experiments examining the role of dynamin, cells were transfected with FLAG-PAR2-HA (1.25 μg), FRET biosensor (1.25 μg) and either DynWT-HA, DynK44E-HA or pcDNA3.1 (2.5 μg). At 24 h after transfection, cells were seeded on ViewPlate-96 well plates (PerkinElmer). FRET was assessed 72 h post-transfection, following overnight serum restriction. Cells were equilibrated in HBSS-HEPES (30 min, 37° C.). FRET was measured using a PHERAstar FSX Microplate Reader (BMG LabTech). For CFP/YFP emission ratio analysis, cells were sequentially excited using a CFP filter (425/10 nm) with emission measured using YFP (550/50 nm) and CFP (490/20 nm) filters. FRET was measured before and after stimulation with trypsin (10 nM), NE (100 nM), CS (100 nM), phorbol 12,13-dibutyrate, PDBu (positive control, 1 μM), or vehicle. FRET ratios (donor/acceptor intensity for EKAR, or acceptor/donor intensity for CKAR and Epac) were calculated and corrected to baseline and vehicle treatments to determine ligand-induced FRET (ΔFRET). Treatment effects were determined by comparison of area under the curve values. Signalling inhibitors were dissolved in HBSS-HEPES. PS2 and PS2 inact were dissolved in HBSS-HEPES+1% DMSO. […]
smiles,measurement,setting,value
CCOC(=O)N[C@@H]1CC[C@@H]2[C@@H](C1)C[C@H]1C(=O)O[C@H](C)[C@H]1[C@H]2/C=C/c1ccc(-c2cccc(F)c2)cn1 [SCH530348],trypsin-induced activation of PKC and ERK,[1],no effect
same,trypsin stimulation of PKC and cAMP,[2],not
